By EC50 is commonly meant the concentration giving half of the maximal effect.

The assay deals with Metabotropic glutamate receptor 8 (Rattus norvegicus) (UniProt P70579). Briefly: potentiation of glutamate response at mGlu8 – cell-based, rat receptor, GIRK thallium flux, confirmation (AID 743462).
Sequence of Metabotropic glutamate receptor 8 (Rattus norvegicus) (P70579 whole entry, looked up): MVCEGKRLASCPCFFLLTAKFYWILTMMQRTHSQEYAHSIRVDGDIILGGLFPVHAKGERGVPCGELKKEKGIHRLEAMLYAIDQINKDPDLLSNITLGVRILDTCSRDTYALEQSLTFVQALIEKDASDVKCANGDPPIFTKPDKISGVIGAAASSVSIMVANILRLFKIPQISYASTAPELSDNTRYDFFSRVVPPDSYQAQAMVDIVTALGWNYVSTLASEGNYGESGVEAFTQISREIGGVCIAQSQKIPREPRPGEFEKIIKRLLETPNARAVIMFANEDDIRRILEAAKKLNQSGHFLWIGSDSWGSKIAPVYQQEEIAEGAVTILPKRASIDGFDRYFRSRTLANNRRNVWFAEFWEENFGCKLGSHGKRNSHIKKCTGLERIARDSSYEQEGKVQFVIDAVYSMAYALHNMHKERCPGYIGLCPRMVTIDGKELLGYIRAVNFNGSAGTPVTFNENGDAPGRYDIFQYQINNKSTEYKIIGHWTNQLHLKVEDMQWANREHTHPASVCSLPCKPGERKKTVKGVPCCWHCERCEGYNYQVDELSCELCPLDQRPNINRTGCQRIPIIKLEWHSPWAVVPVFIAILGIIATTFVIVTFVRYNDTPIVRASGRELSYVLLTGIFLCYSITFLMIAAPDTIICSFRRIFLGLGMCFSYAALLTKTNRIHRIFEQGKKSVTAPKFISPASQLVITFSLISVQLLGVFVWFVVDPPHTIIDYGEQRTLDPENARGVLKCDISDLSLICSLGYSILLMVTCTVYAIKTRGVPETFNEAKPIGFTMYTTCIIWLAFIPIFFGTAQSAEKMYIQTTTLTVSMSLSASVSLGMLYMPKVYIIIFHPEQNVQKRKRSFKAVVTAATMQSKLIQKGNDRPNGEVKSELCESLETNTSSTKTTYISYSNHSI

Regarding `COC(=O)c1ccc(-n2c(C)cc(C(=O)CSc3ccc(NC(C)=O)cc3)c2C)cc1`, the EC50 was 1800 nM.

These data come from PubChem BioAssay AID743462 (Vanderbilt Specialized Chemistry Center, 2014).
